Measurements: patent publication US20230234942A1, “COMPOUNDS FOR TREATING HUNTINGTON'S DISEASE” (PTC Therapeutics, Inc., priority 2020, published 2023)

Tested on: Endogenous Huntingtin Protein
Assay: Endogenous Huntingtin Protein Assay (ELISA-based MSD electrochemiluminescence)
Assay type: cell-based
Conditions: Table 2; MSD plates coated with MW1 (expanded polyglutamine) or MAB2166 capture antibody; "inactive" = result above the detection limit of the assay
Method in brief: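 Endogenous huntingtin measured on MSD plates coated with MW1 (polyglutamine-expanded) or MAB2166 capture antibody; lysates bound overnight at 4 °C. Signal developed with #56565 rabbit monoclonal and goat anti-rabbit SULFO-TAG (0.25 µg/mL, 1 h RT each), electrochemiluminescence read on SI 6000.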

| SMILES | IC50 [nM] | IC50 (nM) |
| --- | --- | --- |
| CC[C@H]1CN(c2ncc(-c3ccc(-c4cc(OC)ncn4)cc3O)nn2)C[C@@H](C)N1 [Cpd 234, 2-{3-[(3S,5R)-3-ethyl-5-methylpiperazin-1-yl]-1,2,4-triazin-6-yl}-5-(6-methoxypyrimidin-4-yl)phenol] | 8.7 | – |
| Oc1cc(-c2cn[nH]c2)ccc1-c1cnc(N2CCNC(C3CCC3)C2)nn1 (centres unmarked) [Cpd 30, 2-[3-(3-cyclobutylpiperazin-1-yl)-1,2,4-triazin-6-yl]-5-(1H-pyrazol-4-yl)phenol] | 33.3 | – |
| CC(C)[C@H]1CN(c2ncc(-c3ccc(-c4cn(C)nn4)cc3O)nn2)CCN1 [Cpd 260, 5-(1-methyl-1H-1,2,3-triazol-4-yl)-2-{3-[(3S)-3-(propan-2-yl)piperazin-1-yl]-1,2,4-triazin-6-yl}phenol] | 417 | – |
| CC[C@H]1CN(c2ncc(-c3ccc(-c4c[nH]nc4F)cc3O)nn2)CCN1 [Cpd 123, 2-{3-[(3S)-3-ethylpiperazin-1-yl]-1,2,4-triazin-6-yl}-5-(3-fluoro-1H-pyrazol-4-yl)phenol] | 11.2 | – |
| Oc1cc(-c2cnn3c2CCCC3)ccc1-c1cnc(N2CCNC(C3CC3)C2)nn1 (single isomer, unassigned) [Cpd 277, 2-{3-[(3S)-3-cyclopropylpiperazin-1-yl]-1,2,4-triazin-6-yl}-5-(4,5,6,7-tetrahydropyrazolo[1,5-a]pyridin-3-yl)phenol or 2-{3-[(3R)-3-cyclopropylpiperazin-1-yl]-1,2,4-triazin-6-yl}-5-(4,5,6,7-tetrahydropyrazolo[1,5-a]pyridin-3-yl)phenol] | 24.8 | – |
| C[C@@H]1CN(c2ncc(-c3ccc(-c4ccc5nc(C(F)(F)F)cn5n4)cc3O)nn2)C[C@H](C)N1 [Cpd 118, 2-{3-[(3R,5S)-3,5-dimethylpiperazin-1-yl]-1,2,4-triazin-6-yl)-5-[2-(trifluoromethyl)imidazo[1,2-b]pyridazin-6-yl]phenol] | – | inactive |
| Oc1cc(-c2cnn3c2CCC3)ccc1-c1cnc(N2CCN[C@@H](C3CC3)C2)nn1 [Cpd 276, 2-{3-[(3S)-3-cyclopropylpiperazin-1-yl]-1,2,4-triazin-6-yl}-5-(5,6-dihydro-4H-pyrrolo[1,2-b]pyrazol-3-yl)phenol] | 3.7 | – |
| Cn1nc2cc(-c3ccc(-c4cnc(N5CCN[C@H](C6(C)CC6)C5)nn4)c(O)c3)cnc2n1 [Cpd 242, 2-{3-[(3R)-3-(1-methylcyclopropyl)piperazin-1-yl]-1,2,4-triazin-6-yl}-5-(2-methyl-2H-[1,2,3]triazolo[4,5-b]pyridin-6-yl)phenol] | 106 | – |
